Laboratory results published in patent EP2892896B1 (Bristol-Myers Squibb Company, priority 2012, dated 2014).

What follows are compounds tested against T1, human melanin concentrating hormone receptor (MCHR1) (Homo sapiens, UniProt Q99705, A5T/E4Q) (assay: Radioligand binding assay for assessment of MCHR1 activity). Details: membranes from HEK-293 cells expressing a mutated (E4Q, A5T) hMCHR1 receptor; competition with 0.06 - 0.1 nM [Phe13, [125I]Tyr19]-MCH; 90 min.
T1 construct: expressed in transfected cells; host or cells: HEK-293 (stably transfected), membranes
T1 sequence (Q99705 whole entry E4Q/A5T): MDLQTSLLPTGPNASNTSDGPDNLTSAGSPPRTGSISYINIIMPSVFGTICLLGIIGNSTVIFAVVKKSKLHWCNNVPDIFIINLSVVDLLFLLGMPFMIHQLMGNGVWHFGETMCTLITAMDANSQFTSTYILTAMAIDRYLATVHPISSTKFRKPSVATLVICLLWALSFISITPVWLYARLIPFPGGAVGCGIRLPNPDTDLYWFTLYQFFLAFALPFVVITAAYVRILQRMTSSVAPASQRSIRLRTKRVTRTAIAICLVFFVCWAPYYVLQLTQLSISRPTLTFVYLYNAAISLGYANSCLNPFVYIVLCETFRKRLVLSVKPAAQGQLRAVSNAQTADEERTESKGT
Procedure: Radioligand Binding Assay for Assessment of MCHR1 Activity
An in vitro binding assay was used to determine the compound Ki value or ability to antagonize binding of a peptide agonist to the human melanin concentrating hormone receptor (MCHR1). […] Binding experiments were carried out with 0.5-1.0 µg of membrane protein incubated in a total of 0.2 mL in 25 mM HEPES (pH 7.4) with 10 mM MgCl2, 2 mM EGTA, and 0.1% BSA (Binding Buffer) for 90 min. For competition binding assays, reactions were carried out in the presence of with 0.06 - 0.1 nM [Phe^13, [^125I]Tyr^19]-MCH and increasing concentrations of unlabeled test molecules. […] Filters were dried, 0.05 mL MicroScint 20 was added to each well and radioactivity was subsequently quantified by scintillation counting on a TOPCOUNT® microplate scintillation counter (Packard). Inhibitory constants were determined by nonlinear least squares analysis using a four parameter logistic equation.
`CCS(=O)(=O)C[C@@H](O)COc1ccc(N2CCC(Oc3ccc(OC4CC4)cc3)C2=O)cc1OC` (stereo partly drawn) [Example 56] showed a Ki of 71 nM. Work on `COc1cc(N2CCC(Oc3ccc(-c4ccccc4)cc3)C2=O)ccc1OCC1(O)CCS(=O)(=O)CC1` (stereo not drawn) [Example 57] yielded a Ki of 2 nM. For `COc1cc(N2CCC(Oc3ccc(-c4ccccc4)cc3)C2=O)ccc1OC[C@H](O)CS(C)(=O)=O` (stereo partly drawn) [Example 58, 3-(Biphenyl-4-yloxy)-1-(4-((S)-2-hydroxy-3-(methylsulfonyl)propoxy)-3-methoxyphenyl)pyrrolidin-2-one], the Ki was 9 nM. For `COc1cc(N2CCC(Oc3ccc(-c4ccc(F)cc4)cc3)C2=O)ccc1OC[C@H](O)CS(C)(=O)=O` (stereo partly drawn) [Example 59], the Ki was 18 nM. `COc1cc(N2CCC(Oc3ccc(C4CC4)cc3)C2=O)ccc1OC[C@H](O)CS(C)(=O)=O` (stereo partly drawn) [Example 60] showed a Ki of 17 nM. `COc1cc(N2CCC(Oc3ccc(OC(F)(F)F)cc3)C2=O)ccc1OC[C@H](O)CS(C)(=O)=O` (stereo partly drawn) [Example 61] showed a Ki of 65 nM. For `COc1cc(N2CCC(Oc3ccc(-c4ccccc4)cc3)C2=O)ccc1OC[C@@H](O)CS(C)(=O)=O` (stereo partly drawn) [Example 62], the Ki was 11 nM. Work on `COc1cc(N2CCC(Oc3ccc(-c4ccc(F)cc4)cc3)C2=O)ccc1OC[C@@H](O)CS(C)(=O)=O` (stereo partly drawn) [Example 63] yielded a Ki of 38 nM. For `COc1cc(N2CCC(Oc3ccc(C4CC4)cc3)C2=O)ccc1OC[C@@H](O)CS(C)(=O)=O` (stereo partly drawn) [Example 64], the Ki was 32 nM. `COc1cc(N2CCC(Oc3ccc(OC(F)(F)F)cc3)C2=O)ccc1OCCS(C)(=O)=O` (stereo not drawn) [Example 65, 1-(3-Methoxy-4-(2-(methylsulfonyl)ethoxy)phenyl)-3-(4-(trifluoromethoxy)phenoxy)pyrrolidin-2-one] was tested, and the Ki was 8 nM. Compound `COc1cc(N2CCC(Oc3ccc(-c4ccccc4)cc3)C2=O)ccc1OCCS(C)(=O)=O` (stereo not drawn) [Example 66] has a Ki of 2 nM. In the case of `COc1cc(N2CCC(Oc3ccc(-c4ccccc4F)cc3)C2=O)ccc1OCCS(C)(=O)=O` (stereo not drawn) [Example 67, 3-(2'-Fluorobiphenyl-4-yloxy)-1-(3-methoxy-4-(2-(methylsulfonyl)ethoxy)phenyl)pyrrolidin-2-one], the Ki is reported as 6 nM. `COc1cc(N2CCC(Oc3ccc(-c4cccc(F)c4)cc3)C2=O)ccc1OCCS(C)(=O)=O` (stereo not drawn) [Example 68] was tested, and the Ki was 5 nM. `COc1cc(N2CCC(Oc3ccc(C4CC4)cc3)C2=O)ccc1OCCS(C)(=O)=O` (stereo not drawn) [Example 70] gave a Ki of 7 nM. `COc1cc(N2CC[C@@H](Oc3ccc(C4CC4)cc3)C2=O)ccc1OCCS(C)(=O)=O` [Example 71, (R)-3-(4-Cyclopropylphenoxy)-1-(3-methoxy-4-(2-(methylsulfonyl)ethoxy)phenyl)pyrrolidin-2-one] gave a Ki of 3 nM. For `CS(=O)(=O)CCOc1ccc(N2CCC(Oc3ccc(-c4ccccc4)cc3)C2=O)cc1OCCF` (stereo not drawn) [Example 72], the Ki was 7 nM. Work on `COc1cc(N2CC[C@H](Oc3ccc(C4CC4)cc3)C2=O)ccc1OCCS(C)(=O)=O` [Example 73] yielded a Ki of 87 nM. With `COc1cc(N2CCC(Oc3ccc(C4CC4)cc3)C2=O)ccc1OCCS(=O)(=O)CC(C)(C)O` (stereo not drawn) [Example 74] the Ki was 64 nM. With `COc1cc(N2CCC(Oc3ccc(-c4ccccc4)cc3)C2=O)ccc1OCCS(=O)(=O)CC(C)(C)O` (stereo not drawn) [Example 75] the Ki was 13 nM. For `Cc1cc(N2CCC(Oc3ccc(C(F)(F)F)cc3)C2=O)ccc1OCC(C)(C)O` (stereo not drawn) [Example 76], the Ki was 26 nM. `Cc1cc(N2CCC(Oc3ccc(OC(F)(F)F)cc3)C2=O)ccc1OCC(C)(C)O` (stereo not drawn) [Example 77] gave a Ki of 15 nM. Work on `Cc1cc(N2CC[C@H](Oc3ccc(OC(F)(F)F)cc3)C2=O)ccc1OCC(C)(C)O` [Example 78] yielded a Ki of 6000 nM. With `Cc1cc(N2CC[C@@H](Oc3ccc(OC(F)(F)F)cc3)C2=O)ccc1OCC(C)(C)O` [Example 79] the Ki was 11 nM. For `Cc1cc(N2CCC(Oc3ccc(-c4ccccc4)cc3)C2=O)ccc1OCC(C)(C)O` (stereo not drawn) [Example 80], the Ki was 4 nM. With `Cc1cc(N2CCC(Oc3ccc(CC(F)(F)F)cc3)C2=O)ccc1OCC(C)(C)O` (stereo not drawn) [Example 81] the Ki was 22 nM. `Cc1cc(N2CCC(Oc3ccc(C4CC4)cc3)C2=O)ccc1OCC(C)(C)O` (stereo not drawn) [Example 82] gave a Ki of 11 nM. Compound `Cc1cc(N2CC[C@H](Oc3ccc(C4CC4)cc3)C2=O)ccc1OCC(C)(C)O` [Example 83] has a Ki of 168 nM. Work on `Cc1cc(N2CC[C@@H](Oc3ccc(C4CC4)cc3)C2=O)ccc1OCC(C)(C)O` [Example 84] yielded a Ki of 5 nM. Work on `Cc1cc(N2CCC(Oc3ccc(I)cc3)C2=O)ccc1OCC(C)(C)O` (stereo not drawn) [Example 85] yielded a Ki of 22 nM. Compound `Cc1cc(N2CCC(Oc3ccc(C(F)(F)F)cn3)C2=O)ccc1OCC(C)(C)O` (stereo not drawn) [Example 86] has a Ki of 5000 nM. With `Cc1cc(N2CCC(Oc3ccc(Br)nc3)C2=O)ccc1OCC(C)(C)O` (stereo not drawn) [Example 87] the Ki was 7000 nM. With `Cc1cc(N2CCC(Oc3ccc(-c4ccccc4)nc3)C2=O)ccc1OCC(C)(C)O` (stereo not drawn) [Example 88] the Ki was 45 nM. In the case of `Cc1cc(N2CCC(Oc3ccc(-c4ccncc4)cc3)C2=O)ccc1OCC(C)(C)O` (stereo not drawn) [Example 89], the Ki is reported as 37 nM. With `Cc1cc(N2CCC(Oc3ccc(-c4ccccc4)cc3)C2=O)ccc1OCC1(O)CC(F)(F)C1` (stereo not drawn) [Example 90] the Ki was 10 nM. For `CCS(=O)(=O)C[C@@H](O)COc1ccc(N2CCC(Oc3ccc(-c4ccccc4)cc3)C2=O)cc1C` (stereo partly drawn) [Example 91], the Ki was 7 nM. With `CCS(=O)(=O)C[C@@H](O)COc1ccc(N2CCC(Oc3ccc(-c4ccc(F)cc4)cc3)C2=O)cc1C` (stereo partly drawn) [Example 92] the Ki was 22 nM. For `CCS(=O)(=O)C[C@@H](O)COc1ccc(N2CCC(Oc3ccc(C4CC4)cc3)C2=O)cc1C` (stereo partly drawn) [Example 93], the Ki was 57 nM. `CCS(=O)(=O)C[C@@H](O)COc1ccc(N2CCC(Oc3ccc(OC(F)(F)F)cc3)C2=O)cc1C` (stereo partly drawn) [Example 94] was tested, and the Ki was 714 nM. Work on `Cc1cc(N2CCC(Oc3ccc(-c4ccccc4)cc3)C2=O)ccc1OC[C@H](O)CS(C)(=O)=O` (stereo partly drawn) [Example 95] yielded a Ki of 15 nM. `Cc1cc(N2CCC(Oc3ccc(-c4ccc(F)cc4)cc3)C2=O)ccc1OC[C@H](O)CS(C)(=O)=O` (stereo partly drawn) [Example 96] showed a Ki of 22 nM. For `Cc1cc(N2CCC(Oc3ccc(C4CC4)cc3)C2=O)ccc1OC[C@H](O)CS(C)(=O)=O` (stereo partly drawn) [Example 97], the Ki was 79 nM. For `Cc1cc(N2CCC(Oc3ccc(C(F)(F)F)cc3)C2=O)ccc1OC[C@H](O)CS(C)(=O)=O` (stereo partly drawn) [Example 98], the Ki was 1430 nM. In the case of `Cc1cc(N2CCC(Oc3ccc(-c4ccc(F)cc4)cc3)C2=O)ccc1OC[C@@H](O)CS(C)(=O)=O` (stereo partly drawn) [Example 99], the Ki is reported as 19 nM. `Cc1cc(N2CCC(Oc3ccc(C4CC4)cc3)C2=O)ccc1OC[C@@H](O)CS(C)(=O)=O` (stereo partly drawn) [Example 100] was tested, and the Ki was 42 nM. `Cc1cc(N2CCC(Oc3ccc(-c4ccccc4)cc3)C2=O)ccc1OCC[S+](C)[O-]` (stereo not drawn) [Example 102] showed a Ki of 6 nM. Compound `Cc1cc(N2CCC(Oc3ccc(OC(F)(F)F)cc3)C2=O)ccc1OCCS(C)(=O)=O` (stereo not drawn) [Example 103] has a Ki of 40 nM. With `Cc1cc(N2CCC(Oc3ccc(-c4ccccc4)cc3)C2=O)ccc1OCCS(C)(=O)=O` (stereo not drawn) [Example 104] the Ki was 1 nM. `Cc1cc(N2CCC(Oc3ccc(-c4cccc(F)c4)cc3)C2=O)ccc1OCCS(C)(=O)=O` (stereo not drawn) [Example 108] was tested, and the Ki was 5 nM. For `Cc1cc(N2CCC(Oc3ccc(-c4ccc(F)cc4)cc3)C2=O)ccc1OCCS(C)(=O)=O` (stereo not drawn) [Example 109], the Ki was 6 nM. In the case of `Cc1cc(N2CC[C@@H](Oc3ccc(-c4ccc(F)cc4)cc3)C2=O)ccc1OCCS(C)(=O)=O` [Example 110], the Ki is reported as 3 nM. With `Cc1cc(N2CC[C@H](Oc3ccc(-c4ccc(F)cc4)cc3)C2=O)ccc1OCCS(C)(=O)=O` [Example 111] the Ki was 1740 nM. `Cc1cc(N2CCC(Oc3ccc(C(F)(F)F)cc3)C2=O)ccc1OCCS(C)(=O)=O` (stereo not drawn) [Example 112] was tested, and the Ki was 31 nM. With `Cc1cc(N2CC=C(Oc3ccc(OC(F)(F)F)cc3)C2=O)ccc1OCC(C)(C)O` [Example 117] the Ki was 25 nM. In the case of `Cc1cc(N2CC=C(Oc3ccc(C4CC4)cc3)C2=O)ccc1OCC(C)(C)O` [Example 118], the Ki is reported as 9 nM. Work on `COc1cc(N2CC=C(Oc3ccc(C4CC4)cc3)C2=O)ccc1OCC(C)(O)CO` (stereo not drawn) [Example 119] yielded a Ki of 4 nM. Work on `COc1cc(N2CC=C(Oc3ccc(C4CC4)cc3)C2=O)ccc1OC[C@H](O)C1CC1` [Example 121] yielded a Ki of 2 nM. `COc1cc(N2CC=C(Oc3ccc(-c4ccccc4)cc3)C2=O)ccc1OCC(C)(C)O` [Example 122] was tested, and the Ki was 3 nM.
